{"source": "paper PMC6757289", "about": "“Design and Characterization of SGK3-PROTAC1, an Isoform Specific SGK3 Kinase PROTAC Degrader” (ACS Chemical Biology, 2019)", "target": "T1, SGK3 (Homo sapiens, UniProt Q96BR1)", "T1 sequence (Q96BR1 1-496)": "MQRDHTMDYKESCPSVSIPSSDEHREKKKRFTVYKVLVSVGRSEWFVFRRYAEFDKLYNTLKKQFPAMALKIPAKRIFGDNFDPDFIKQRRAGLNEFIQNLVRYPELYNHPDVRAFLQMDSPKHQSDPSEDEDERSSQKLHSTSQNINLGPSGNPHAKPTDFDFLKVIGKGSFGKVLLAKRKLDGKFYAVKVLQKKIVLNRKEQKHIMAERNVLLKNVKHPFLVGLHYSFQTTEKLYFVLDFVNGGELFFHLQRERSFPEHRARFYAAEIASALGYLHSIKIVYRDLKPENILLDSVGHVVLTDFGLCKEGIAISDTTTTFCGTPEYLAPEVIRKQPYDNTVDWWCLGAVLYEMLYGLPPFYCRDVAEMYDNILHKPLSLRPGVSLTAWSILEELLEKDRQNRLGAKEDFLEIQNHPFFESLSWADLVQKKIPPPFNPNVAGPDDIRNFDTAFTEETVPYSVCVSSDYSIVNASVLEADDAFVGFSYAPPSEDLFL", "assay": "SGK3 degradation in CAMA-1 cells, immunoblot", "assay_type": "cell-based", "settings": "for SGK3 expression: CAMA-1, 5 days 1 μM GDC0941 or AZD5363, 0.3 μM for 5 days or 8 h", "method": "Figure 3 Characterization of cellular activities of SGK3-PROTAC1 and cisSGK3-PROTAC1. (A) HEK293 cells were first treated for 8 h with 0.03–3 μM SGK3-PROTAC1 and cisSGK3-PROTAC1. One hour before lysis, cells were treated with 3 μM AZD5363. Lysates were subjected to immunoblot analysis with the indicated antibodies. […] Lysates were subjected to immunoblot analysis with the indicated antibodies. (C) HEK293 cells were treated for up to 48 h with SGK3-PROTAC1 (0.3 μM), and lysates were analyzed by immunoblot analysis using the indicated antibodies. (D) HEK293 cells were treated for 24 h with SGK3-PROTAC1. Cells were washed three times with DMEM to wash out the compound, and recovery of SGK3 expression protein was analyzed by immunoblot analysis. (E–G) As in A except that CAMA-1 (E), ZR-75-1 (F), and JIMT-1 (G) cells were employed rather than HEK293 cells.\nFigure 5 SGK3-PROTAC1-mediated degradation of SGK3 inhibits Akt-independent activation of mTORC1 in cancer cell lines treated with Akt or PI3K inhibitors. CAMA-1 (A, C) or ZR-75-1 (B, D) were treated for 5 days with 1 μM GDC0941 (A, B) or 1 μM AZD5363 (C, D). Cells were treated with the compounds indicated for either 5 days or 8 h before lysis; cells were treated with the compounds indicated. Cell lysates were subject to immunoblot analysis with the indicated antibodies.\nAll cell treatments were carried out as described in figure legends, to a final DMSO concentration of 0.1% (v/v). Lysates were quantified. Immunoblotting was performed using standard procedures, described in brief below. Lysate concentration was quantified by Bradford Assay, and 10 μg of lysate was loaded in the LDS sample buffer for SDS-PAGE electrophoresis on Novex 4–12% Bis–Tris gels. Proteins were electrophoretically transferred onto nitrocellulose membranes (Amersham Protran 0.45 μm NC; GE Healthcare) at 80 V for 80 min on ice in transfer buffer. Transferred membranes were blocked with 5% (w/v) nonfat dry milk dissolved in TBS-T [20 mM Tris/HCl, pH 7.5, 150 mM NaCl, and 0.1% (v/v) Tween 20] at RT for 30 min, before incubation with the primary antibody overnight at 4 °C. The signal was produced with near-infrared secondary antibodies and detected using a Licor Biosciences Odyssey System, and the signal was quantified in Image Studio Lite.", "data": [{"smiles": "Cc1ccc(F)c(S(=O)(=O)Nc2ccc(-c3nc(OC[C@H]4CN(CCCCCCOCCOCCOCC(=O)N[C@H](C(=O)N5C[C@H](O)C[C@H]5C(=O)NCc5ccc(-c6scnc6C)cc5)C(C)(C)C)CCO4)c4cn[nH]c4n3)cc2)c1", "note": "[SGK3-PROTAC1]", "values": [{"measurement": "concentration inducing degradation of SGK3", "setting": "CAMA-1, 8 h", "result": "> 0.1", "unit": "µM"}, {"measurement": "SGK3 expression", "result": "substantially reduced"}]}, {"smiles": "Cc1ccc(F)c(S(=O)(=O)Nc2ccc(-c3nc(OC[C@H]4CN(CCCCCCOCCOCCOCC(=O)N[C@H](C(=O)N5C[C@@H](O)C[C@H]5C(=O)NCc5ccc(-c6scnc6C)cc5)C(C)(C)C)CCO4)c4cn[nH]c4n3)cc2)c1", "note": "[cisSGK3-PROTAC1]", "values": [{"measurement": "degradation of SGK3", "setting": "CAMA-1, 8 h, 0.03–3 μM", "result": "no impact"}, {"measurement": "SGK3 expression", "result": "no significant effect"}]}]}
